Data reported in patent US9051333B2, “6,7-dihydroimidazo [2,1-b] [1,3]oxazine bactericides” (OTSUKA PHARMACEUTICAL CO., LTD., priority 2011, dated 2015).
Converted amounts (≈) assume the structure as drawn.

tested on: Mycobacterium tuberculosis (M. tuberculosis H37Rv); experiment: Antimicrobial Assay (Agar Plate Dilution Method), M. tuberculosis H37Rv; type: cell-based; conditions: 336 h, 7H11 agar medium, cultured at 37° C. for 14 days, read-out: minimum inhibitory concentration

Row | Compound | MIC [ng/mL]
1 | O=[N+]([O-])c1cn2c(n1)O[C@@H](COc1ccc(N3CCC(Cc4ccc(Oc5ccc(OC(F)(F)F)cc5)cc4)CC3)cc1)CC2 [Example 228, (R)-2-nitro-7-(4-{4-[4-(4-trifluoromethoxyphenoxy)benzyl]piperidin-1-yl}phenoxymethyl)-6,7-dihydro-5H-imidazo[2,1-b][1,3]oxazine] | ≤ 0.4

tested on: Mycobacterium tuberculosis (M. tuberculosis kurono); experiment: Antimicrobial Assay (Agar Plate Dilution Method), M. tuberculosis kurono; type: cell-based; conditions: 336 h, M. tuberculosis kurono, 7H11 agar medium, cultured at 37° C. for 14 days, read-out: Minimum Inhibitory Concentration

Row | Compound | MIC [ng/mL]
2 | O=[N+]([O-])c1cn2c(n1)O[C@@H](COc1ccc(N3CCC(Cc4ccc(Oc5ccc(OC(F)(F)F)cc5)cc4)CC3)cc1)CC2 [Example 228, (R)-2-nitro-7-(4-{4-[4-(4-trifluoromethoxyphenoxy)benzyl]piperidin-1-yl}phenoxymethyl)-6,7-dihydro-5H-imidazo[2,1-b][1,3]oxazine] | 0.8 (≈ 1.28 nM)
3 | O=[N+]([O-])c1cn2c(n1)O[C@@H](COc1ccc(N3CCN(CC4CCC(C(F)(F)F)CC4)CC3)cc1)CC2 (stereo partly drawn) [Example 414, (R)-2-nitro-7-{4-[4-(4-trifluoromethyl-cyclohexylmethyl)piperazin-1-yl]phenoxymethyl}-6,7-dihydro-5H-imidazo[2,1-b][1,3]oxazine] | 6 (≈ 11.5 nM)
4 | O=[N+]([O-])c1cn2c(n1)O[C@@H](COc1ccc(N3CCC(C4CCN(Cc5ccc(C(F)(F)F)cc5)CC4)CC3)cc1)CC2 [Example 415, (R)-2-nitro-7-{4-[1′-(4-trifluoromethylbenzyl)-4,4′-bipiperidin-1-yl]phenoxymethyl}-6,7-dihydro-5H-imidazo[2,1-b][1,3]oxazine] | 1.5 (≈ 2.5 nM)
5 | O=[N+]([O-])c1cn2c(n1)O[C@@H](COc1ccc(N3CCC(Oc4ccc(SC(F)(F)F)cc4)CC3)cc1)CC2 [Example 446, (R)-2-nitro-7-{4-[4-(4-trifluoromethylsulfanylphenoxy)piperidin-1-yl]phenoxymethyl}-6,7-dihydro-5H-imidazo[2,1-b][1,3]oxazine] | 3 (≈ 5.45 nM)
6 | COC1(c2ccc(C(F)(F)F)cc2)CCN(c2ccc(OC[C@H]3CCn4cc([N+](=O)[O-])nc4O3)cc2)CC1 [Example 471, (R)-7-{4-[4-methoxy-4-(4-trifluoromethylphenyl)piperidin-1-yl]phenoxymethyl}-2-nitro-6,7-dihydro-5H-imidazo[2,1-b][1,3]oxazine] | 12 (≈ 22.5 nM)
7 | CC(C)(c1ccc(OCc2ccc(C(F)(F)F)cc2)cc1)N1CCN(c2ccc(OC[C@H]3CCn4cc([N+](=O)[O-])nc4O3)cc2)CC1 [Example 490, (R)-7-[4-(4-{1-methyl-1-[4-(4-trifluoromethylbenzyloxy)phenyl]ethyl}piperazin-1-yl)phenoxymethyl]-2-nitro-6,7-dihydro-5H-imidazo[2,1-b][1,3]oxazine] | 0.8 (≈ 1.23 nM)
